# According to US11839698B2, “Drug composition and coating” (priority 2014, dated 2023):
# Where a name gives a salt, the structure may show the parent alone.
# What was measured:
# [1] = Test Method D: stability to ethylene oxide sterilization (paclitaxel recovery by UPLC); format: physicochemical; conditions: additive formulated with paclitaxel as solid coating
# Protocol: A sample of a composition of the invention or a coated device of the invention was placed in a breathable polyethylene pouch (e.g. a Tyvek pouch) and subjected to at least 12 hours preconditioning at 43° C. and 65% relative humidity followed by 12 hours exposure to 600 mg/L ethylene oxide at 52° F. and 25% relative humidity. The chamber was then aerated at 32° F. for at least 12 hours until ethylene oxide concentration was less than 0.25 ppm.
# After sterilization, the paclitaxel content on the device or the paclitaxel content of the composition was assessed (through device extraction for coated medical devices i.e. immersion of the whole device in an extraction solvent) using UPLC quantification as described in the evaluation methods section. For each device or composition, the percentage drug recovery after sterilization was calculated by normalizing the extracted paclitaxel amount by the theoretical paclitaxel amount loaded on the device, or present in the composition pre-sterilization.
# Approximately 30 mg of excipient was weighed into a 7 mL glass vial and 6 mL of 75/25 v/v acetone/water was added. A small stirrer bar was added to each vial and all samples were stirred overnight at room temperature to ensure full dissolution. […] Percent paclitaxel recovery was calculated by normalizing to either theoretical initial loading or pre-sterilized samples.
# [2] = in acetone, ethanol and aqueous mixtures thereof
# Excerpt: As discussed in further detail below, coatings of the invention can be prepared by pipetting a solution containing therapeutic agent and excipient onto the device to be coated. […] Thus, in one embodiment the organic additive is not thiamine-HCl.
# [3] = Early experiments on stability of organic additive in solution; format: physicochemical
# Excerpt: Thus, vanillin is not suitable as an organic additive for the present invention.
Structure (SMILES),effect of additive on paclitaxel under ethylene oxide sterilization [1],also measured
NC(=O)c1cccnc1 [niacinamide],nearly complete paclitaxel degradation,
O=C([O-])c1ccccc1O.[Na+] [sodium salicylate],cause degradation of the paclitaxel,
Cc1ncc(C[n+]2csc(CCO)c2C)c(N)n1 [thiamine-HCl],,solubility of additive [2]: poor solubility
COc1cc(C=O)ccc1O [vanillin],,stability of additive in solution [3]: easily degraded in solution
